Patent US20050074850A1, “Novel calcium channels and uses thereof” (Synta Pharmaceuticals Corp., priority 2003, published 2005)

Assays:
[1] = test system: L-type calcium channels; assay: DM-BODIPY binding competition by flow cytometry in T cell leukemia cell lines; design: species or system human; settings: ten-fold excess (S)-(−)-Bay K8644 over 1 μM DM-BODIPY; Jurkat, MOLT-4, CEM, Loucy, SUP-T1
Source text: In another method of determining whether a test compound is binding L-type channels, competition with DM-BODIPY dyes is used. Such assays employ DM-BODIPY (Molecular Probes, Eugene, […].), a dihydropyridine analog that is covalently attached to the BODIPY dye. The DM-BODIPY dye binds to L-type calcium channels on the cell surface and can be assessed by flow-cytometry. Accordingly, a test compound can be used in a competition assay with a DM-BODIPY dye. If the test compound is able to compete for binding of the DM-BODIPY dye to a cell expressing an LVCa(v) polypeptide, the test compound is a candidate compound for binding to the LVCa(v) polypeptide and being a modulator of the activity of that channel.
To ascertain the levels of L-type channel expression at the cell surface, cells were stained with an ester form of DM-BODIPY (Molecular Probes, Inc., Eugene, Oreg., catalog no. D-2183) at final concentration of 1 μM in PBS (phosphate buffered saline). Competition of DM-BODIPY binding was performed with a ten-fold excess (S)-(−)-Bay K8644 (Sigma-Aldrich). Analysis was performed using flow cytometry (Becton Dickinson). FIG. 22A illustrates the results of the DM-BODIPY binding experiments. […]

[2] = test system: L-type calcium channel; assay: Whole-cell patch clamp of L-type currents in Jurkat T cells; type: cell-based, human
Experimental: In these patch clamp experiments, Jurkat cells that were grown in suspension cultures were washed once with standard external solution and plated directly onto the experimental bath chamber. Cells were kept in a standard modified Ringer's solution of the following composition (in mM): […] pipette-filling solutions for voltage-gated L-type channels contained (in mM): […], the above solution was replaced by an otherwise identical extracellular solution in which 10 μM Bay K was added to the bath. Intracellular pipette-filling solutions for voltage-gated L-type channels in some cases contained (in mM): Cs-glutamate 120, NaCl 8, MgCl2 1, MgATP 2, NaGTP 0.3, Cs-BAPTA 10, Hepes-CsOH 10, pH 7.2. Patch clamp experiments were performed in the tight-seal whole-cell configuration at 24±2° C. High-resolution current recordings were acquired by a computer-based patch clamp amplifier system (EPC-9, HEKA, Lambrecht, Germany). Patch pipettes had resistances between 2-4 MΩ after filling with the standard intracellular solution. For L-type current measurements the holding potential was −80 mV and the duration of the ramp was 100 ms for optimal L-type current size. All voltages were corrected for a liquid junction potential of 10 mV between external and internal solutions. Currents were filtered at 2.3 kHz and digitized at 100 μs intervals. Capacitive currents and series resistance were determined and corrected before each voltage ramp using the automatic capacitance compensation of the EPC-9. For ICRAC analysis, the very first ramps prior to current activation were digitally filtered at 2 kHz, pooled and used for leak-subtraction of all subsequent current records. The low-resolution temporal development of currents at a given potential was extracted from the leak-corrected individual ramp current records by measuring the current amplitudes at voltages of −80 mV or +80 mV, respectively. Similarly, one of the first ramps could be used as leak-subtraction for L-type currents, as the currents developed over a time course of 6-8 seconds, indicating recovery from inactivation. Where applicable, statistical errors of averaged data are given as means±S.E.M. with n determinations and statistical significance was assessed by Student's t-test.
For measurements of the L-type current with barium as the charge carrier, whole cell voltage-clamp recordings were performed using an Axopatch 200 amplifier (Axon Instruments) in a bath consisting of 135 mM choline Cl, 10 mM HEPES, 1 mM MgCl2 and 20 mM BaCl2, adjusted to a pH of 7.2 with CsOH. The internal solution consisted of 135 mM CsCl, 10 mM HEPES, 1 mM EGTA, 1 mM EDTA, and 4 mM Mg-ATP, adjusted to a pH of 7.2 with CsOH. Pclamp 8 software was used for data acquisition (Axon Instruments). For square pulse protocols, data were filtered at 2 kHz and sampled at 10 kHz. Patch electrodes were 3.8-4.4 MΩ when filled with internal solution. Leak subtraction was performed online using a P/-4 protocol. 75% series resistance compensation was used with a 10 μs lag. Statistical references indicate the mean±s.e. After forming the whole-cell patch, cells were lifted off the bottom of the dish and placed in front of an array of perfusion tubes made of 250 μm internal diameter quartz tubing (Polymicro Technologies, Phoenix, Ariz.) connected by Teflon tubing to glass reservoirs. […]

[3] = test system: L-type channels; assay: DM-BODIPY staining (flow cytometry) of siRNA-expressing Jurkat cells; type: cell-based, human
Experimental: (§1) This consensus sequence was used in the design of a sequence that would express an siRNA for stable expression of a hairpin loop containing the consensus sequence. The sequence was cloned into the psiRNA-hHlzeo vector (Invitrogen, San Diego, Calif.), the sequence was verified, and Jurkat cells were transfected with it. To select clones that were positive for expression of the hairpin, 400 micrograms/ml of zeocin was added 24 hours after transfection. […] Independent, individual clones were also generated in parallel. […] Thus, loss of L-type channel expression also correlates with decreased proliferation of Jurkat T cells.
First, control wild type (WT) and L-type siRNA-expressing (LT1) Jurkat T cells were stained with DM-BODIPY and analyzed by flow cytometry (Un indicates unstained cells). The LT1 cells were transfected with an siRNA sequence that targets the majority of L-type channels, and was designed based on sequence consensus of the human L-type calcium channels.

[4] = test system: L-type channels; assay: Calcium flux in siRNA-expressing Jurkat cells; type: cell-based, human; settings: pool of zeocin-resistant Jurkat clones
Experimental: To assess the effect of expressing the mutant three-domain Ca(v)1.3 on calcium influx in cells, bulk calcium assays were performed using fura-2 (Molecular Probes) ratiometric imaging according to the manufacturer's recommendations. Fura-2 is a calcium-sensitive dye. When excited at short ultra-violet wavelengths (340 nm) the fluorescence of fura-2 increases with increasing calcium concentration, whereas fluorescence decreases with increasing calcium concentration at longer wavelengths (380 nm). By forming a ratio of successive images obtained at each wavelength, a measure of calcium concentration inside the fura-2 loaded cell is obtained.
as §1

[5] = test system: Jurkat T cells; assay: Growth and cell numbers of siRNA-expressing Jurkat clones; type: cell-based, human
Experimental: as §1
Jurkat cells were stably transfected with each of the siRNA constructs and pools of clones of each were analyzed. RT-PCR was performed on samples from the clones to detect expression of Ca(v)1.3.

Q: What does the source list for `COC(=O)C1=C(C)NC(C)=C([N+](=O)[O-])[C@H]1c1ccccc1C(F)(F)F` [BayK8644, (S)-(−)-Bay K8644]?
A: DM-BODIPY binding competed by BayK8644 [1]: competed; reversibility of agonist effect when washed out ([2]; Jurkat cells): reversible; cells with discernible DHPR (L-type calcium channel) currents ([2]; Jurkat cells tested in the presence of BayK8644): Five of eleven; average current densities ([2]; Jurkat cells, 10 μM BayK8644, calcium as charge carrier, n=5, +/− s.e.m.): 1+/−0.3 pA/pF; peak current increase ([2]; Jurkat cells, in presence of the L-type agonist, calcium as charge carrier): five-fold

Q: How did the L-type current amplitude ([2]; Jurkat cells pre-treated with PMA) turn out when `CCCCCCCCCCCCCC(=O)O[C@@H]1[C@@H](C)[C@@]2(O)[C@@H](C=C(CO)C[C@]3(O)C(=O)C(C)=C[C@@H]23)[C@@H]2C(C)(C)[C@]12OC(C)=O` [PMA, phorbol 12-myristate 13-acetate] was run?
A: The L-type current amplitude was “significantly increased”.

Q: What does the source list for “LT1 (DNA AACTGTGAGCTGGACAAGAA; chemistry not given here)”?
A: reduction in DM-BODIPY binding ([3]; independent, individual Jurkat clones): approximately 90%; DM-BODIPY binding ([3]; pool of zeocin-resistant Jurkat clones): decrease; decrease of surface expression of L-type channels ([3]; stable siRNA expression in Jurkat T cells, DM-BODIPY staining): about 90%; calcium flux [4]: marked decrease; growth of clones ([5]; individual siRNA-expressing Jurkat clones): slow rate of growth; growth of clones ([5]; individual siRNA-expressing Jurkat clones, listed as consensus sequence): grew very slowly; growth of clones ([5]; pool of zeocin-resistant Jurkat clones, bulk culture): grew more slowly
